# Measurements: patent publication US9403797B2, “5-(pyridin-2-yl-amino)-pyrazine-2-carbonitrile compounds and their therapeutic use” (Cancer Research Technology Limited, priority 2011, dated 2016)
# Like-named read-outs stand apart in the source and are kept apart here.
# Assays:
# [1] = tested on: HT29 human colon carcinoma xenograft; assay: In Vivo Study 2: combination with gemcitabine in HT29 human colon carcinoma xenograft; parameters: species or system mouse; settings: for Tumour growth inhibition relative to controls / T/C vs. vehicle controls: day 24; for T/C vs. vehicle controls: tumour volumes; for Mean tumour volume (cm^3, mean ± SEM): day 24 after start of therapy, PAPC-A-01 75 mg/kg p.o., gemcitabine 100 mg/kg i.v.
# Procedure: In Vivo Study 2: PAPC-A-01 in Combination with Gemcitabine in HT29 Human Colon Carcinoma Xenograft
# Animals weighed 20.3±2.0 g at the start of the study. Handing and all experimental procedures were performed under sterile conditions in laminar flow hoods in accordance with UK Home Office, national and local ethical guidelines.
# HT29 colon carcinoma cells from the American Type Culture Collection (ATCC, LGC Promochem, Middesex, UK) were harvested from tissue culture flasks and injected subcutaneously in the right flanks of mice (3 million cells per site). Once tumours were established (mean diameter 0.55±0.05 cm) mice were randomised to treatment groups (n=6) to receive (a) test compound (PAPC-A-01) (75 mg/kg), (b) gemcitabine (100 mg/kg), (c) a combination (PAPC-A-01) (75 mg/kg) and gemcitabine (100 mg/kg), or (d) relevant vehicles.
# Clinical grade gemcitabine hydrochloride (GEMZAR, Eli Lilly, Newmarket, UK) was reconstituted in sterile 0.9% sodium chloride and aliquots frozen at −20° C. Gemcitabine was administered intravenously once weekly via a lateral tail vein on days 0 (day 5 after tumour cell implantation), 7 and 14. Test compound (PAPC-A-01) was dissolved in 10% DMSO and diluted out in 5% Tween 20, 85% saline. Test compound (PAPC-A-01) was administered by oral gavage on days 1, 2, 8, 9, 15 and 16. The control animals received both vehicles by the appropriate route on the designated days. The compounds were administered in a volume of 100 μL per 10 g body weight.
# Animals were observed daily and body weights and tumours measured three times weekly. Two perpendicular tumour diameters were used to calculate volumes using the formula: V=4/3π[(d1+d2)/4]^3.
# T/C values (volumes of treated tumours vs. controls) were calculated with respect to vehicle control tumours or those treated with gemcitabine alone, expressed as a percentage.
# CHK1 = CHK1 (Homo sapiens (Human), UniProt O14757); assay: Inhibitor potency vs. CHK1 (Assay 1A DELFIA or Assay 1B Caliper format); type: biochemical
# Procedure: Assay 1A: Determination of Inhibitor Potency vs. CHK1 in DELFIA Assay Format
# CHK1 kinase function was measured in a DELFIA® assay in order to monitor phosphorylation of a CDC25C peptide using a specific phospho antibody. […] The reaction mixture was incubated for 30 minutes at room temperature and then stopped by the addition of buffer (125 μL) containing 40 mM EDTA, 0.05% Tween 20, 0.1% BSA in TBS (10× concentrate, Sigma). An aliquot (100 μL) of the stopped reaction mixture was transferred to a black neutravidin-coated plate (Perbio) and incubated for 1 hour on a shaker (Titertek, Flow Laboratories) at room temperature. […] The plates were washed a further four times with wash buffer before the addition of enhancement solution (100 μL/well, PerkinElmer Life Sciences).
# Assay 1B: Determination of Inhibitor Potency Vs. CHK1 in Caliper Assay Format
# CHK1 kinase activity was measured in a microfluidic assay that monitors the separation of a phosphorylated product from its substrate. […] For each test compound a 50 μM stock concentration in 100% DMSO was used. […] The plate was sealed and centrifuged (1 minutes, 1000 rpm) before incubation for one hour at room temperature. The reaction was stopped by the addition of separation buffer (90 μL). […] IC50 values were calculated in GraphPad Prism5 using a non linear regression fit of the log (inhibitor) vs. response with variable slope equation.
# CHK2 = CHK2 (Homo sapiens (Human), UniProt O96017); assay: Inhibitor selectivity for inhibition of CHK1 vs. CHK2 (Assay 2, CHK2 DELFIA assay); type: biochemical; settings: CHK2 IC50/CHK1 IC50
# Procedure: The plates were washed a further four times with wash buffer before the addition of enhancement solution (100 μL/well, PerkinElmer Life Sciences).
# TH-MYCN neuroblastoma = assay: In Vivo Study 1: transgenic MYCN-driven neuroblastoma model; parameters: species or system mouse
# Procedure: In Vivo Study 1: PAPC-A-01 in Transgenic MYCN-Driven Neuroblastoma Model
# Spontaneous neuroblastomas arising in hemizygous mice transgenic for TH-MYCN (human MYCN under the control of the rat tyrosine hydroxylase promoter) were detected by abdominal palpation. Sequential animals with well-established tumours (30-70 days of age) were randomised to receive either test compound (PAPC-A-01) or vehicle until 8-9 mice per group were accrued. The test compound (PAPC-A-01) was administered as a single agent at 100 mg/kg p.o. daily for 7 consecutive days by oral gavage (100 μL/10 g body weight) and controls received an equivalent volume of vehicle (10% DMSO, 5% Tween 20, 85% saline). Neuroblastoma size was assessed by MRI and by the mass of tumours dissected from the abdominal cavity at the end of therapy.
# ^1H MRI was performed on a 7T Bruker horizontal bore microimaging system (Bruker Instruments, Ettlingen, Germany) using a 3 cm birdcage coil. Anaesthesia was induced a combination of fentanyl citrate (0.315 mg/mL) plus fluanisone (10 mg/mL) (Hypnorm, Janssen Pharmaceutical, Oxford, UK) and midazolam (5 mg/mL) (Roche, Welwyn Garden City, UK) and water (1:1:2). Animal body temperature was maintained by a warm air blower through the magnet bore.
# Anatomical T2-weighted coronal and transverse images were acquired from twenty contiguous 1 mm-thick coronal slices through the mouse abdomen, using a rapid acquisition with refocused echoes (RARE) sequence with 4 averages of 128 phase encoding steps over a 3×3 cm field of view, two echoes of 36 and 132 ms, a TR of 4.5 s and a RARE factor of 8. Following MRI, the mice were left to recover on a heat mat for 24 hours. Tumour volumes were measured using segmentation from regions of interest drawn on every slice from the coronal T2 weighted images containing tumour using in-house software (ImageView, working under IDL, ITT, Boulder, Colo., USA).
# in vivo = settings: female, BALB/c, mouse, Oral bioavail. (plasma concentration, 1 hour following 10 mg/kg p.o.)
# HT29 cells = assay: Mitosis Inhibition Assay (MIA), checkpoint abrogation; settings: Homo sapiens, HT-29, read-out: MIA IC50
# [2] = Comparative oral bioavailability by limited sampling in vivo pharmacokinetics; settings: female, BALB/c, mouse, plasma, 10 mg/kg, Oral bioavail. (plasma concentration, 1 hour following 10 mg/kg p.o.), female BALB/c mice, expressed relative to 10 mg/kg p.o.
# [3] = Assay 1A (DELFIA) or Assay 1B (Caliper), read-out: CHK1 IC50
# Chain of CHK1 (O14757 whole entry): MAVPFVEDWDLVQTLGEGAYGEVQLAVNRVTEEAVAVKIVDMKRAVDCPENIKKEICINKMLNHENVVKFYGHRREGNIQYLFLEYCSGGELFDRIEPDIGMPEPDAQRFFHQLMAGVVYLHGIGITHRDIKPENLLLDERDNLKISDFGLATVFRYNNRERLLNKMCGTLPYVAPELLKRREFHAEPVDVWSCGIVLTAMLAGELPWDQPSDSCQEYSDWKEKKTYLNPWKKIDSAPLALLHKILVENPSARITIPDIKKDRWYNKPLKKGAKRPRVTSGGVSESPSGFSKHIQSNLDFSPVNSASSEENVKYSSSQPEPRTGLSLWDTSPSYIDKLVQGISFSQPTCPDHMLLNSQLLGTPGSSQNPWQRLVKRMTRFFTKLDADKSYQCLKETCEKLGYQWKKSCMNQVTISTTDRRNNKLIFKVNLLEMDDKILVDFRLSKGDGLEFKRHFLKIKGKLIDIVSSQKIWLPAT
# Chain of CHK2 (O96017 whole entry): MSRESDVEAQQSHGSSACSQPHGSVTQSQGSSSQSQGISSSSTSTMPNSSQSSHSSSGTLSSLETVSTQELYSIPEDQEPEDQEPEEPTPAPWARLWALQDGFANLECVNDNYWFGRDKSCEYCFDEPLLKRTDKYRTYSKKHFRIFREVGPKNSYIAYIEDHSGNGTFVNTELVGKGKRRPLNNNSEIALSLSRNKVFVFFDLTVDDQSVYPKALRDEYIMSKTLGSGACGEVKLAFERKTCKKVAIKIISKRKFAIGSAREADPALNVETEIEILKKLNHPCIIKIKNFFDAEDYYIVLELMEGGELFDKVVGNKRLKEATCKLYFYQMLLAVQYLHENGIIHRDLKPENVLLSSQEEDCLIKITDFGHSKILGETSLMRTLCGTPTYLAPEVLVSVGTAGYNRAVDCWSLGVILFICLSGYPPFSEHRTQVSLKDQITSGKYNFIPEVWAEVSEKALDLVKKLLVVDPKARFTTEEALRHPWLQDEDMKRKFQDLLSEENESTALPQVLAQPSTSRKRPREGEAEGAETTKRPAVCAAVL
smiles,measurement,setting,value
"Nc1ccn([C@@H]2O[C@H](CO)[C@@H](O)C2(F)F)c(=O)n1 [Gemcitabine, reference compound]",Tumour growth inhibition relative to controls,[1],approximately 20%
same,T/C vs. vehicle controls,[1],80.8%
same,"Mean tumour volume (cm^3, mean ± SEM)",[1],0.888 ± 0.188 cm^3
"COc1cc(Nc2cnc(C#N)c(O[C@H](C)CN(C)C)n2)ncc1-c1cnn(C)c1 [PAPC-A-01, (R)-3-((1-(Dimethylamino)propan-2-yl)oxy)-5-((4-methoxy-5-(1-methyl-1H-pyrazol-4-yl)pyridin-2-yl)amino)pyrazine-2-carbonitrile]",IC50,CHK1,< 20 nM
same,IC50,CHK1; [3],6 nM
same,Tumour growth inhibition relative to controls,[1],no growth inhibition
same,T/C vs. vehicle controls,[1],101.4%
same,"Mean tumour volume (cm^3, mean ± SEM)",[1],1.114 ± 0.257 cm^3
same,CHK1 vs. CHK2 selectivity,CHK2,540-fold
same,T/C (tumour weight),TH-MYCN neuroblastoma; 100 mg/kg p.o. daily for 7 days,13.4%
same,"MR imaging in individual mice, pre-treatment and on day 7","TH-MYCN neuroblastoma; 7 day treatment period, 100 mg/kg p.o. daily",tumour regression
same,Mean weight of tumours at the end of the study,"TH-MYCN neuroblastoma; mean±SD, 100 mg/kg p.o. daily for 7 days, control 2.1±0.7 g",0.3 ± 0.2 g
same,Tumour volume (MRI),"TH-MYCN neuroblastoma; one mouse, following 7 days treatment, 100 mg/kg p.o. daily, pre-treatment volume 1960 mm^3",417 mm^3
"C[C@H](CN(C)C)Oc1nc(Nc2cc(N(C)C)c(-c3cnn(C)c3)cn2)cnc1C#N [PAPC-A-03, (R)-5-((4-(Dimethylamino)-5-(1-methyl-1H-pyrazol-4-yl)pyridin-2-yl)amino)-3-((1-(dimethylamino)propan-2-yl)oxy)pyrazine-2-carbonitrile]",IC50,CHK1; [3],< 20 nM
"CNc1cc(Nc2cnc(C#N)c(O[C@H](C)CN(C)C)n2)ncc1C#CC(C)(C)O [PAPC-A-08, (R)-3-((1-(Dimethylamino)propan-2-yl)oxy)-5-((5-(3-hydroxy-3-methylbut-1-yn-1-yl)-4-(methylamino)pyridin-2-yl)amino)pyrazine-2-carbonitrile]",IC50,CHK1,< 20 nM
"CNc1cc(Nc2cnc(C#N)c(O[C@H](C)CN(C)C)n2)ncc1C1CC1 [PAPC-A-09, (R)-5-((5-Cyclopropyl-4-(methylamino)pyridin-2-yl)amino)-3-((1-(dimethylamino)propan-2-yl)oxy)pyrazine-2-carbonitrile]",concentration at 1 h,in vivo,≥ 10 nM
"CNc1cc(Nc2cnc(C#N)c(O[C@H](C)CN(C)C)n2)ncc1C(=O)OC [PAPC-A-10, (R)-Methyl 6-((5-cyano-6-((1-(dimethylamino)propan-2-yl)oxy)pyrazin-2-yl)amino)-4-(methylamino)nicotinate]",IC50,CHK1,< 20 nM
"COc1cc(Nc2cnc(C#N)c(O[C@@H]3CCNC3)n2)ncc1-c1cnn(C)c1 [PAPC-B-01, (R)-5-((4-Methoxy-5-(1-methyl-1H-pyrazol-4yl)pyridin-2-yl)amino)-3-(pyrrolidin-3-yloxy)pyrazine-2-carbonitrile]",IC50,CHK1,< 20 nM
"COc1cc(Nc2cnc(C#N)c(O[C@@H]3CCN(C)C3)n2)ncc1-c1cnn(C)c1 [PAPC-B-02, (R)-5-((4-Methoxy-5-(1-methyl-1H-pyrazol-4-yl)pyridin-2-yl)amino)-3-((1-methylpyrrolidin-3-yl)oxy)pyrazine-2-carbonitrile]",IC50,CHK1,< 20 nM
"CNc1cc(Nc2cnc(C#N)c(O[C@@H]3CCNC3)n2)ncc1-c1cnn(C)c1 [PAPC-B-03, (R)-5-((5-(1-Methyl-1H-pyrazol-4-yl)-4-(methylamino)pyridin-2-yl)amino)-3-(pyrrolidin-3-yloxy)pyrazine-2-carbonitrile]",IC50,HT29 cells,< 500 nM
"CNc1cc(Nc2cnc(C#N)c(O[C@H]3CCNC3)n2)ncc1-c1cnn(C)c1 [PAPC-B-04, (S)-5-((5-(1-Methyl-1H-pyrazol-4-yl)-4-(methylamino)pyridin-2-yl)amino)-3-(pyrrolidin-3-yloxy)pyrazine-2-carbonitrile]",IC50,HT29 cells,< 500 nM
"CNc1cc(Nc2cnc(C#N)c(O[C@@H]3CCN(C)C3)n2)ncc1-c1cnn(C)c1 [PAPC-B-05, (R)-5-((5-(1-Methyl-1H-pyrazol-4-yl)-4-(methylamino)pyridin-2-yl)amino)-3-((1-methylpyrrolidin-3-yl)oxy)pyrazine-2-carbonitrile]",IC50,CHK1,< 20 nM
"CNc1cc(Nc2cnc(C#N)c(O[C@H]3CCN(C)C3)n2)ncc1-c1cnn(C)c1 [PAPC-B-06, (S)-5-((5-(1-Methyl-1H-pyrazol-4-yl)-4-(methylamino)pyridin-2-yl)amino)-3-((1-methylpyrrolidin-3-yl)oxy)pyrazine-2-carbonitrile]",IC50,CHK1,< 20 nM
same,concentration at 1 h,in vivo,≥ 10 nM
"CNc1cc(Nc2cnc(C#N)c(O[C@@H]3CCNC3)n2)ncc1C#CC(C)(C)O [PAPC-B-08, (R)-5-((5-(3-Hydroxy-3-methylbut-1-yn-1-yl)-4-(methylamino)pyridin-2-yl)amino)-3-(pyrrolidin-3-yloxy)pyrazine-2-carbonitrile]",IC50,CHK1; [3],< 20 nM
same,concentration at 1 h,[2],≥ 10 nM
"COC(=O)c1cnc(Nc2cnc(C#N)c(O[C@@H]3CCNC3)n2)cc1N(C)C [PAPC-B-11, (R)-Methyl 6-((5-cyano-6-(pyrrolidin-3-yloxy)pyrazin-2-yl)amino)-4-(dimethylamino)nicotinate]",IC50,CHK1,< 20 nM
